Results as given in the kinase profiling compilation of Christmann-Franck et al. (2016).

Experiments:
Experiment in all cases: radiometric filter-binding kinase assay
AURKB (human) = AURKB (human) (UniProt Q96GD4)
EPHA2 (human) = EPHA2 (human) (UniProt P29317)
MYLK (human) = MYLK (human) (UniProt Q15746)
PHKG1 (human) = PHKG1 (human) (UniProt Q16816)
PAK6 (human) = PAK6 (human) (UniProt Q9NQU5)
EPHB3 (human) = EPHB3 (human) (UniProt P54753)
MAPK14 (human) = MAPK14 (human) (UniProt Q16539)
MAPK13 (human) = MAPK13 (human) (UniProt O15264)
FLT1 (human) = FLT1 (human) (UniProt P17948)
MAP2K1 (human) = MAP2K1 (human) (UniProt Q02750)
ROCK2 (rat) = details: accession and sequence are those of the human protein
TBK1 (human) = TBK1 (human) (UniProt Q9UHD2)
STK3 (human) = STK3 (human) (UniProt Q13188)
MKNK1 (human) = MKNK1 (human) (UniProt Q9BUB5)
BTK (human) = BTK (human) (UniProt Q06187)
TTK (human) = TTK (human) (UniProt P33981)
PRKCZ (human) = PRKCZ (human) (UniProt Q05513)
EEF2K (human) = EEF2K (human) (UniProt O00418)
GSK3B (human) = GSK3B (human) (UniProt P49841)
ERBB4 (human) = ERBB4 (human) (UniProt Q15303)
MAP3K9 (human) = MAP3K9 (human) (UniProt P80192)
MAPK12 (human) = MAPK12 (human) (UniProt P53778)
[1] = test system: RPS6KB1 (human), P23443 [T412E]
NEK2 (human) = NEK2 (human) (UniProt P51955)
DYRK3 (human) = DYRK3 (human) (UniProt O43781)
FGFR1 (human) = FGFR1 (human) (UniProt P11362)
CAMKK2 (human) = CAMKK2 (human) (UniProt Q96RR4)
MAPKAPK3 (human) = MAPKAPK3 (human) (UniProt Q16644)
MAP3K11 (human) = MAP3K11 (human) (UniProt Q16584)

Chain of MAPK13 (human) (O15264 whole entry, looked up): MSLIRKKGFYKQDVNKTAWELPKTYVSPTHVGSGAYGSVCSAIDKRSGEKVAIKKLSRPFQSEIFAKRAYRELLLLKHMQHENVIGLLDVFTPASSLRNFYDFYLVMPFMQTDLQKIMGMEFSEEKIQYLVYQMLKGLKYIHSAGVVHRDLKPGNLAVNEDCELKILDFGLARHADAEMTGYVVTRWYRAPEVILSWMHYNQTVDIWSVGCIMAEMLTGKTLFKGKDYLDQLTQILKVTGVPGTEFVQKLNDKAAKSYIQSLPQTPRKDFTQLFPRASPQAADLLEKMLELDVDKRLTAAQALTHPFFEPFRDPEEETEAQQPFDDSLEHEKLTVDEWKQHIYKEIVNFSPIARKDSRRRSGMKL
Chain of PAK6 (human) (Q9NQU5 whole entry, looked up): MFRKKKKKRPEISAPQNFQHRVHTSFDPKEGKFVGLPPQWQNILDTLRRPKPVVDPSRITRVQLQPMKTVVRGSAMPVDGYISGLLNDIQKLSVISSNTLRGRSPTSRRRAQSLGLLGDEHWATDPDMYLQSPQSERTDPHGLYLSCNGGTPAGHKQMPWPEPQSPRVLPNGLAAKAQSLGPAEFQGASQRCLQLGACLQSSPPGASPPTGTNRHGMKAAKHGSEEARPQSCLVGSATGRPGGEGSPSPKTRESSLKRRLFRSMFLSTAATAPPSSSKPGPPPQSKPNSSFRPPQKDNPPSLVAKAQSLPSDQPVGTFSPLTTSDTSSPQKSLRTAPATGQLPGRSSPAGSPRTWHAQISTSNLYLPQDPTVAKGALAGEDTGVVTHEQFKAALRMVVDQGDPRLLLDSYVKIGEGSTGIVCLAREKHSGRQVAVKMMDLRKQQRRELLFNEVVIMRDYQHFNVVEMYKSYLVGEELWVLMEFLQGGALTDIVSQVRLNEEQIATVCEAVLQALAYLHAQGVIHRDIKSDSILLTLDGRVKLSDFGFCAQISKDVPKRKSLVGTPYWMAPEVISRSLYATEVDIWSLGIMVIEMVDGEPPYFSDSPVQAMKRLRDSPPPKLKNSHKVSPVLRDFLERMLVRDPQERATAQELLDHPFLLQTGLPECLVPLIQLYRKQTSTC
Chain of CAMKK2 (human) (Q96RR4 whole entry, looked up): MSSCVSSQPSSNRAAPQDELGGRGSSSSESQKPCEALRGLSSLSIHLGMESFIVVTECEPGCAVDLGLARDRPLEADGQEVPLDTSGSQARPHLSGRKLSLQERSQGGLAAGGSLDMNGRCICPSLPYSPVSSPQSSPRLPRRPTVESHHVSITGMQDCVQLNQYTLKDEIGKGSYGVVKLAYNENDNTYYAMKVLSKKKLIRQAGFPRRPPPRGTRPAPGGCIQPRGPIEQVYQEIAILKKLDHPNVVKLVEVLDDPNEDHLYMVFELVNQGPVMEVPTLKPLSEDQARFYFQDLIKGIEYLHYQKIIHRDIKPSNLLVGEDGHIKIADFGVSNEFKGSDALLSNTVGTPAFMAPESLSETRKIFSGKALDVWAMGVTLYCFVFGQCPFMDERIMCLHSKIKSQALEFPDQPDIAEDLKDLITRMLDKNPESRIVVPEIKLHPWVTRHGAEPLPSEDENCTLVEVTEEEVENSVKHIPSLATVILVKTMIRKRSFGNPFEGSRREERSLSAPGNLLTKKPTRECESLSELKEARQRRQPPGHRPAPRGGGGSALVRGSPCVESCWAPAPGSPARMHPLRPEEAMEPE
Chain of MAPK12 (human) (P53778 whole entry, looked up): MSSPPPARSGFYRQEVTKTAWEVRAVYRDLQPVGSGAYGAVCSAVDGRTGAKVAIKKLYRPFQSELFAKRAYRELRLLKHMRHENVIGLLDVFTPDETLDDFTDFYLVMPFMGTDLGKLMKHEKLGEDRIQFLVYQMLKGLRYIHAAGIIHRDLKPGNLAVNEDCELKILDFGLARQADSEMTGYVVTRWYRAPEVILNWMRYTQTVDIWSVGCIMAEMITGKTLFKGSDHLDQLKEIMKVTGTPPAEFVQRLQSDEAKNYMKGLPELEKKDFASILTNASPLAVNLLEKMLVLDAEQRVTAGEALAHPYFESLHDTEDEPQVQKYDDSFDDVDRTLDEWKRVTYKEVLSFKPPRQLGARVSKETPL
Chain of TBK1 (human) (Q9UHD2 whole entry, looked up): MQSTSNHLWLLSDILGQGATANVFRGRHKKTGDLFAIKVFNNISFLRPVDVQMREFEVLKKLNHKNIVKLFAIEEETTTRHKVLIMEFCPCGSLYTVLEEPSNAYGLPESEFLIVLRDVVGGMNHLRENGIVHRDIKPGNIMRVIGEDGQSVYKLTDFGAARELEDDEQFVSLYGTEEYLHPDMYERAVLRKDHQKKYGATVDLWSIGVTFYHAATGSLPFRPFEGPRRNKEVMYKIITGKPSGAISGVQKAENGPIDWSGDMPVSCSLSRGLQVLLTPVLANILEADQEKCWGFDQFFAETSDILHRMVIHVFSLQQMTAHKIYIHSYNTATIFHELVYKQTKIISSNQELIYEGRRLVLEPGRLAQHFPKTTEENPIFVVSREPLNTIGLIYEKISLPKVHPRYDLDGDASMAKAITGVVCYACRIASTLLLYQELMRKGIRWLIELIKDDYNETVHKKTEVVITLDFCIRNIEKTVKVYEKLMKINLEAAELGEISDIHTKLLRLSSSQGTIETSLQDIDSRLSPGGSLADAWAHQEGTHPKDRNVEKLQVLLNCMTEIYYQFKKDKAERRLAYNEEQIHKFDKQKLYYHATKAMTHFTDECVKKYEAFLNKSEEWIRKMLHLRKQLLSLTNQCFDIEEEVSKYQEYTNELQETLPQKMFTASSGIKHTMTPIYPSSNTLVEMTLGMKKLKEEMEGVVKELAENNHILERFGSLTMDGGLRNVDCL
Chain of RPS6KB1 (human), P23443 [T412E] (P23443 whole entry T412E, looked up): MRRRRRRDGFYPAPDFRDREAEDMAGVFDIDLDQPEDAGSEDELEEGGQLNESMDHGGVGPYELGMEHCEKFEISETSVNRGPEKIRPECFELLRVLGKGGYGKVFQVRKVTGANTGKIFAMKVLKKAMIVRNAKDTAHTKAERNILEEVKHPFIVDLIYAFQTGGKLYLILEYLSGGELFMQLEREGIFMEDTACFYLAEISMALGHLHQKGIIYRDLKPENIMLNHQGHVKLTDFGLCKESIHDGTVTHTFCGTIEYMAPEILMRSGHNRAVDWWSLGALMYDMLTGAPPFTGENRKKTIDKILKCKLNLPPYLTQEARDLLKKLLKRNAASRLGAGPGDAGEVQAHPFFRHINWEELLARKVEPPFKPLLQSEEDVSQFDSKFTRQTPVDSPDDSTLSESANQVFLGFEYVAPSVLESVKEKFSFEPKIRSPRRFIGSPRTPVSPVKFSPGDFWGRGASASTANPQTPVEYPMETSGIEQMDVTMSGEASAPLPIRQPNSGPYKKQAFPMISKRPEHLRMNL
Chain of MAP3K9 (human) (P80192 whole entry, looked up): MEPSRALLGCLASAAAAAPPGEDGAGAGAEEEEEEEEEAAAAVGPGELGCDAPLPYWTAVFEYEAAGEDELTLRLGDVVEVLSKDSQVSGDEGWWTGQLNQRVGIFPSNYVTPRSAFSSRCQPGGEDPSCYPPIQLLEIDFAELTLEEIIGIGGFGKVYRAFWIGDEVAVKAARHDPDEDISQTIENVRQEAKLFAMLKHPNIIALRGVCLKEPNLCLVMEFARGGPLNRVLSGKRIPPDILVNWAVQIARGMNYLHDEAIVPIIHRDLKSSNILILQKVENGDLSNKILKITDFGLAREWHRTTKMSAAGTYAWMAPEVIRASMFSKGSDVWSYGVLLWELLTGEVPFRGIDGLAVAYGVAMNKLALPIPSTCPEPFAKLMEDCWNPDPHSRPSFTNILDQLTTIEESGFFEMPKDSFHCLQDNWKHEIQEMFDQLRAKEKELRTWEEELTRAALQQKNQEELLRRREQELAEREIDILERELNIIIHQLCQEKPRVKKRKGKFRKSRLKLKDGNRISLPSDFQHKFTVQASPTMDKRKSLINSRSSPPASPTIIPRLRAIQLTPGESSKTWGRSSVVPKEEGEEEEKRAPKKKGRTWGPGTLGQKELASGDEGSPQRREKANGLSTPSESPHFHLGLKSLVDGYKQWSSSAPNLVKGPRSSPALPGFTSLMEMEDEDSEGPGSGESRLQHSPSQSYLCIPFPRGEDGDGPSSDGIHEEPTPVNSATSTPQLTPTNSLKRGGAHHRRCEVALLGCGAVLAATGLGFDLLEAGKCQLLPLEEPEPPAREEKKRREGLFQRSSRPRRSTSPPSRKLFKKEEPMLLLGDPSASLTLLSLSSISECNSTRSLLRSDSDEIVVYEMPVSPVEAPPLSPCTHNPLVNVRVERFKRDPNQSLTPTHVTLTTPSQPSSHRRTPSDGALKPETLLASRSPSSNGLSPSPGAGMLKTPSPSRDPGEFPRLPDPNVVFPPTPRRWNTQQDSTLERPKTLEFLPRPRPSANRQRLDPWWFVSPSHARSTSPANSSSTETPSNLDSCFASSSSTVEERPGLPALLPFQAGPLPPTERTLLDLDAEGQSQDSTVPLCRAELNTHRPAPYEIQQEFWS
Chain of DYRK3 (human) (O43781 whole entry, looked up): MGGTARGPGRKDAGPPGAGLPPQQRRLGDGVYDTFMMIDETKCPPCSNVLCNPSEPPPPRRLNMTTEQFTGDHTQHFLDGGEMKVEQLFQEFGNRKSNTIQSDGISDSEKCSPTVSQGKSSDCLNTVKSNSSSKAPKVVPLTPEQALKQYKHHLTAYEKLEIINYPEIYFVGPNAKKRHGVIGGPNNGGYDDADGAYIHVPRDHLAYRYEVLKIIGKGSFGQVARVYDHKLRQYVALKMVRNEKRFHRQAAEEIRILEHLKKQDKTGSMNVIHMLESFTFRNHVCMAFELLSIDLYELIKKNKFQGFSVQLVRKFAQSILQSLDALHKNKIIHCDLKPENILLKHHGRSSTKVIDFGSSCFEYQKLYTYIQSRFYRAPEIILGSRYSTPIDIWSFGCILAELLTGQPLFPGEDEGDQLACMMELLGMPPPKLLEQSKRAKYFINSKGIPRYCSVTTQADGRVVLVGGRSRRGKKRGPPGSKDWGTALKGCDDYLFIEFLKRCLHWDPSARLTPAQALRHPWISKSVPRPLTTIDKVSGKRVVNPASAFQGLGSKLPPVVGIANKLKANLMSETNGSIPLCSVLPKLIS

residual activity (AURKB (human); compound 0.01 µM): 105%
residual activity (AURKB (human); compound 0.1 µM): 106%
residual activity (AURKB (human); compound 1.0 µM): 83%
residual activity (EPHA2 (human); compound 0.01 µM): 110%
residual activity (EPHA2 (human); compound 0.1 µM): 118%
residual activity (EPHA2 (human); compound 1.0 µM): 114%
residual activity (MYLK (human); compound 0.01 µM): 116%
residual activity (MYLK (human); compound 0.1 µM): 113%
residual activity (MYLK (human); compound 1.0 µM): 92%
residual activity (PHKG1 (human); compound 0.01 µM): 106%
residual activity (PHKG1 (human); compound 0.1 µM): 108%
residual activity (PHKG1 (human); compound 1.0 µM): 103%
residual activity (PAK6 (human); compound 0.01 µM): 108%
residual activity (PAK6 (human); compound 0.1 µM): 120%
residual activity (PAK6 (human); compound 1.0 µM): 124%
residual activity (EPHB3 (human); compound 0.01 µM): 106%
residual activity (EPHB3 (human); compound 0.1 µM): 107%
residual activity (EPHB3 (human); compound 1.0 µM): 91%
residual activity (MAPK14 (human); compound 0.01 µM): 105%
residual activity (MAPK14 (human); compound 0.1 µM): 109%
residual activity (MAPK14 (human); compound 1.0 µM): 103%
residual activity (MAPK13 (human); compound 0.01 µM): 106%
residual activity (MAPK13 (human); compound 0.1 µM): 113%
residual activity (MAPK13 (human); compound 1.0 µM): 108%
residual activity (FLT1 (human); compound 0.01 µM): 98%
residual activity (FLT1 (human); compound 0.1 µM): 108%
residual activity (FLT1 (human); compound 1.0 µM): 89%
residual activity (MAP2K1 (human); compound 0.01 µM): 86%
residual activity (MAP2K1 (human); compound 0.1 µM): 101%
residual activity (MAP2K1 (human); compound 1.0 µM): 84%
residual activity (ROCK2 (rat); compound 0.01 µM): 96%
residual activity (ROCK2 (rat); compound 0.1 µM): 92%
residual activity (ROCK2 (rat); compound 1.0 µM): 70%
residual activity (TBK1 (human); compound 0.01 µM): 110%
residual activity (TBK1 (human); compound 0.1 µM): 115%
residual activity (TBK1 (human); compound 1.0 µM): 109%
residual activity (STK3 (human); compound 0.01 µM): 116%
residual activity (STK3 (human); compound 0.1 µM): 128%
residual activity (STK3 (human); compound 1.0 µM): 112%
residual activity (MKNK1 (human); compound 0.01 µM): 106%
residual activity (MKNK1 (human); compound 0.1 µM): 108%
residual activity (MKNK1 (human); compound 1.0 µM): 111%
residual activity (BTK (human); compound 0.01 µM): 126%
residual activity (BTK (human); compound 0.1 µM): 121%
residual activity (BTK (human); compound 1.0 µM): 110%
residual activity (TTK (human); compound 0.01 µM): 90%
residual activity (TTK (human); compound 0.1 µM): 98%
residual activity (TTK (human); compound 1.0 µM): 82%
residual activity (PRKCZ (human); compound 0.01 µM): 113%
residual activity (PRKCZ (human); compound 0.1 µM): 105%
residual activity (PRKCZ (human); compound 1.0 µM): 72%
residual activity (EEF2K (human); compound 0.01 µM): 108%
residual activity (EEF2K (human); compound 0.1 µM): 100%
residual activity (EEF2K (human); compound 1.0 µM): 97%
residual activity (GSK3B (human); compound 0.01 µM): 108%
residual activity (GSK3B (human); compound 0.1 µM): 111%
residual activity (GSK3B (human); compound 1.0 µM): 109%
residual activity (ERBB4 (human); compound 0.01 µM): 106%
residual activity (ERBB4 (human); compound 0.1 µM): 107%
residual activity (ERBB4 (human); compound 1.0 µM): 106%
residual activity (MAP3K9 (human); compound 0.01 µM): 110%
residual activity (MAP3K9 (human); compound 0.1 µM): 111%
residual activity (MAP3K9 (human); compound 1.0 µM): 107%
residual activity (MAPK12 (human); compound 0.01 µM): 109%
residual activity (MAPK12 (human); compound 0.1 µM): 110%
residual activity (MAPK12 (human); compound 1.0 µM): 106%
residual activity ([1]; compound 0.01 µM): 111%
residual activity ([1]; compound 0.1 µM): 106%
residual activity ([1]; compound 1.0 µM): 100%
residual activity (NEK2 (human); compound 0.01 µM): 118%
residual activity (NEK2 (human); compound 0.1 µM): 118%
residual activity (NEK2 (human); compound 1.0 µM): 106%
residual activity (DYRK3 (human); compound 0.01 µM): 100%
residual activity (DYRK3 (human); compound 0.1 µM): 103%
residual activity (DYRK3 (human); compound 1.0 µM): 93%
residual activity (FGFR1 (human); compound 0.01 µM): 119%
residual activity (FGFR1 (human); compound 0.1 µM): 119%
residual activity (FGFR1 (human); compound 1.0 µM): 110%
residual activity (CAMKK2 (human); compound 0.01 µM): 112%
residual activity (CAMKK2 (human); compound 0.1 µM): 123%
residual activity (CAMKK2 (human); compound 1.0 µM): 127%
residual activity (MAPKAPK3 (human); compound 0.01 µM): 112%
residual activity (MAPKAPK3 (human); compound 0.1 µM): 112%
residual activity (MAPKAPK3 (human); compound 1.0 µM): 100%
residual activity (MAP3K11 (human); compound 0.01 µM): 100%
residual activity (MAP3K11 (human); compound 0.1 µM): 110%
residual activity (MAP3K11 (human); compound 1.0 µM): 87%
SMILES: CNc1nc(-c2ccc3c(N)n[nH]c3c2)cc(N2C[C@@H](C(=O)NC3CCCCC3)CC[C@H]2C)n1
